Where two headings read alike, the source gives them in different places.
Molecular target: Xenopus IRBP Module 1 (Xenopus laevis, UniProt Q7SZI7)
Assay: Fluorometric titration (enhancement, quenching)
Assay type: binding
Parameters: cDNAs corresponding to the full-length IRBP, module 1, and module 2 were expressed in pThioHis; modules 3 and 4 were expressed in pTrxFus; made in house; host or cells: E. coli Top10 (pThioHis)
Source text: Enhancement of retinol fluorescence and quenching of the intrinsic protein fluorescence were used to monitor binding of all-trans retinol to the recombinant IRBPs. We previously derived an equation that is generally useful for describing such quantum yield changes that are consequent upon ligand binding. This equation has been previously applied to the analysis of binding by monitoring the enhancement of retinol fluorescence. In this case, where excitation is at 330 nm and emission is monitored at 480, the fluorescence enhancement (Fenh) depends on the total retinol concentration (Rt), the dissociation constant (Kd ^all-trans), the number of retinol-binding sites per protein molecule (N) and the total protein concentration (Pt).
Assuming that there is a single type of noninteracting site on the protein, (Fenh) is expected to be linearly related to the concentration of bound retinol molecules. Fenh is given by the relation
Fenh=C1+C2[Rtall−trans−(Rtall−trans+NPt+Kdall−trans)^2−4NPtRtall−trans] MathType@MTEF@5@5@+=feaafiart1ev1aaatCvAUfKttLearuWrP9MDH5MBPbIqV92AaeXatLxBI9gBaebbnrfifHhDYfgasaacH8akY=wiFfYdH8Gipec8Eeeu0xXdbba9frFj0=OqFfea0dXdd9vqai=hGuQ8kuc9pgc9s8qqaq=dirpe0xb9q8qiLsFr0=vr0=vr0dc8meaabaqaciaacaGaaeqabaqabeGadaaakeaacqWGgbGrdaWgaaWcbaGaemyzauMaemOBa4MaemiAaGgabeaakiabg2da9iabdoeadnaaBaaaleaacqaIXaqmaeqaaOGaey4kaSIaem4qam0aaSbaaSqaaiabikdaYaqabaGcdaWadaqaaiabdkfasnaaDaaaleaacqWG0baDaeaacqWGHbqycqWGSbaBcqWGSbaBcqGHsislcqWG0baDcqWGYbGCcqWGHbqycqWGUbGBcqWGZbWCaaGccqGHsisldaGcaaqaamaabmaabaGaemOuai1aa0baaSqaaiabdsha0bqaaiabdggaHjabdYgaSjabdYgaSjabgkHiTiabdsha0jabdkhaYjabdggaHjabd6gaUjabdohaZbaakiabgUcaRiabd6eaojabdcfaqnaaBaaaleaacqWG0baDaeqaaOGaey4kaSIaem4saS0aa0baaSqaaiabdsgaKbqaaiabdggaHjabdYgaSjabdYgaSjabgkHiTiabdsha0jabdkhaYjabdggaHjabd6gaUjabdohaZbaaaOGaayjkaiaawMcaamaaCaaaleqabaGaeGOmaidaaOGaeyOeI0IaeGinaqJaemOta4Kaemiuaa1aaSbaaSqaaiabdsha0bqabaGccqWGsbGudaqhaaWcbaGaemiDaqhabaGaemyyaeMaemiBaWMaemiBaWMaeyOeI0IaemiDaqNaemOCaiNaemyyaeMaemOBa4Maem4CamhaaaqabaaakiaawUfacaGLDbaaaaa@8490@
The equation was fit to the data by nonlinear least-squares analysis. To follow the quenching of the protein's intrinsic fluorescence the excitation and emission wavelengths were set to 280 nm and 340 nm, respectively, while the protein was titrated with all-trans retinol. For the quenching studies the inner filter effect was accounted for by graphical correction as previously described. Fluorescence measurements were made using an SLM 8000TM C photon counting spectrofluorometer corrected for wavelength dependence of source energy and detector response.

Xenopus IRBP Module 1, sequence (Q7SZI7 23-315): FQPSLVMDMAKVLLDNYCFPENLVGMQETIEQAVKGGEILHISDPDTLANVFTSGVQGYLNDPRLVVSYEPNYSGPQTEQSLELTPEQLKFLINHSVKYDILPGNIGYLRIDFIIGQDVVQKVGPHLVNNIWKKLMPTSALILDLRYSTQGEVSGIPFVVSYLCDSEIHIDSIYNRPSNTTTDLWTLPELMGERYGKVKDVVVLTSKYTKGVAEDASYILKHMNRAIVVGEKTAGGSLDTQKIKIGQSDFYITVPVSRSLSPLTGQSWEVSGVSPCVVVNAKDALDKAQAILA

With `CC1=C(/C=C/C(C)=C/C=C/C(C)=C/CO)C(C)(C)CCC1` [all-trans retinol] the “Binding sites (N), Enhancement” value (all-trans retinol fluorescence enhancement, ex 330 nm, em 480 nm) was 0.83 ± 0.15, the Kd (all-trans retinol fluorescence enhancement, ex 330 nm, em 480 nm, read-out: Kd, Enhancement) was 440 ± 130 nM and the Kd (quenching by all-trans retinol, ex 280 nm, em 340 nm, read-out: Kd, Quenching) was 350 ± 80 nM.

Reference: paper PMC2000878, “Module structure of interphotoreceptor retinoid-binding protein (IRBP) may provide bases for its complex role in the visual cycle – structure/function study of Xenopus IRBP” (BMC Biochemistry, 2007)
